B1: Gαi protein mimic nanobody 39 (Nb39) (VHH)
VHH: QVQLVESGGGLVRPGGSLRLSCVDSERTSYPMGWFRRAPGKEREFVASITWSGIDPTYADSVADRFTTSRDVANNTLYLQMNSLKHEDTAVYYCAARAPVGQSSSPYDYDYWGQGTQVTVSS

Experiments:
M-SPOTIT2 = assay type: cell-based; settings: pH 11
MOR = MOR (Homo sapiens, UniProt P35372); settings: previous studies; cited from earlier work
K-SPOTIT1.0 = molecular target: T1, K-SPOTIT1.0 (Homo sapiens, UniProt P41145); assay type: cell-based
T1 construct: expressed in transfected cells; host or cells: HEK293T (lentiviral infection)
T1 sequence (P41145 with tags, fused parts or gaps): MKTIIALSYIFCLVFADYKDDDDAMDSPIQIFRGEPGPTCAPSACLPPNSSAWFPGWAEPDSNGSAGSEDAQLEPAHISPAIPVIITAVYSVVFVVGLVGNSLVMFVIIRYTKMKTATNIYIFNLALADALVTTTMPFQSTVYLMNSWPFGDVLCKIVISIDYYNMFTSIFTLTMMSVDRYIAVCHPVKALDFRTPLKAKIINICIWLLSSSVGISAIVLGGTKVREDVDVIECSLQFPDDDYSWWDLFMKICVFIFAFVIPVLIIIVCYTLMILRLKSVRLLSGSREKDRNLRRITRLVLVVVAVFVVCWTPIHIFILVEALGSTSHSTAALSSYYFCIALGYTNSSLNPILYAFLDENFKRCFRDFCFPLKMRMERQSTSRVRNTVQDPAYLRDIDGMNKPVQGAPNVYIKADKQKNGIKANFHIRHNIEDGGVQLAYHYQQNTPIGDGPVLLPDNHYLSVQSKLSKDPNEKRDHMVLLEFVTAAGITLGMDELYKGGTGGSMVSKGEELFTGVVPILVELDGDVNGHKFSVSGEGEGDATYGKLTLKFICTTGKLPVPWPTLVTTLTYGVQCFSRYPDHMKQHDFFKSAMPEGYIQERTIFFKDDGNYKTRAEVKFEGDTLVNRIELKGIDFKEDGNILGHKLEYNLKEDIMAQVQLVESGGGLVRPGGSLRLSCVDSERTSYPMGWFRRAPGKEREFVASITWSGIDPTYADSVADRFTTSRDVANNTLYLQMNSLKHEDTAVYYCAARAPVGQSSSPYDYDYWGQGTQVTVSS

[1] = molecular target: kappa-opioid receptor (KOR) as in K-SPOTIT1.0 (Homo sapiens (Human)) (UniProt P41145); assay: cell-based or functional assay

MOR, sequence (P35372 whole entry): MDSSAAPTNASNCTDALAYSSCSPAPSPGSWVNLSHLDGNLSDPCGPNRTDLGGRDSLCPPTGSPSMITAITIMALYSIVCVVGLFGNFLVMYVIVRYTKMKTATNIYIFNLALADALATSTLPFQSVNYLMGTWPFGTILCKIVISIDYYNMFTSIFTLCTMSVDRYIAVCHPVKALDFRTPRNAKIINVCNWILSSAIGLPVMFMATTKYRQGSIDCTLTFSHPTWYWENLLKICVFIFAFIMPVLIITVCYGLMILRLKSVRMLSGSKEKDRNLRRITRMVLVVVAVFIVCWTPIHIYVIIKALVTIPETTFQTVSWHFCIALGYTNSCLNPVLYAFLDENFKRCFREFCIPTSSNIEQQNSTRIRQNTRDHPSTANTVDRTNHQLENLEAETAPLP

Molecule | SNR (M-SPOTIT2) | also measured
O=C(Cc1ccc(Cl)c(Cl)c1)N1CCCCC1CN1CCCC1 (stereo not drawn) [BRL52537] | much lower SNR | 
CC(C)C[C@@H](NC(=O)[C@H](Cc1ccccc1)NC(=O)CNC(=O)[C@@H](C)NC(=O)[C@@H](N)Cc1ccc(O)cc1)C(=O)O [DADLE] |  | affinity for MOR (MOR): weak affinity
Oc1ccc2c3c1O[C@H]1c4[nH]c5c(c4C[C@@]4(O)[C@@H](C2)N(CC2CC2)CC[C@]314)C[C@@]1(O)[C@H]2Cc3ccc(O)c4c3[C@@]1(CCN2CC1CC1)[C@H]5O4 [Nor-BNI, nor-binaltorphimine] |  | fluorescence before and after addition of KOR antagonist post fluorophore maturation (K-SPOTIT1.0): Comparable fluorescence; fluorescence increase when antagonist added after initial 30-second agonist stimulation, vs Nor-BNI only cells (K-SPOTIT1.0): No significant fluorescence increase
COC(=O)[C@@H]1C[C@H](OC(C)=O)C(=O)[C@H]2[C@@]1(C)CC[C@H]1C(=O)O[C@H](c3ccoc3)C[C@]21C [Sal A, Salvinorin A] | much lower SNR | 
CN(C)C(=O)C(CCN1CCC(O)(c2ccc(Cl)cc2)CC1)(c1ccccc1)c1ccccc1 [loperamide] | highest SNR | 
CN1CC[C@]23c4c5ccc(O)c4O[C@H]2[C@@H](O)C=C[C@H]3[C@H]1C5 [morphine] | highest SNR | 
C=CCN1CC[C@]23c4c5ccc(O)c4O[C@H]2C(=O)CC[C@@]3(O)[C@H]1C5 [naloxone] | much lower SNR | 
COc1ccc2c3c1O[C@H]1C(=O)CC[C@@]4(O)[C@@H](C2)N(C)CC[C@]314 [oxycodone] | highest SNR | 
B1 |  | cpGFP fluorescence of K-SPOTIT1.0 after a 30-second pulse of Sal A, then 24 hours of incubation [1]: 4.2 fold; cpGFP fluorescence of K-SPOTIT1.0 after longer Sal A incubation [1]: 12 fold; cpGFP fluorescence of K-SPOTIT1.0 in HEK293T cells, 24 hours with 10 µM Salvinorin A against no Sal A [1]: 10.9 fold
